Data from ChEMBL document CHEMBL4420076, “Amylin and calcitonin receptor agonist” (2017).
Numbered stars: 1 amine (or outer) side, 2 acyl side, 3 side chain; on linkers, the order of the positions; unused ones are H or OH. Peptide text beside a SMILES is read from it. * marks the point of attachment. C20 diacid = O=C(O)CCCCCCCCCCCCCCCCCCC(=O)*; γGlu = O=C(O)[C@H](CCC(=O)[*:2])N[*:1]

What was measured:
[1] = Solubility in 100 mM bistrispropane buffer at pH 6.5 incubated for 18 hrs by UPLC analysis; type: physicochemical
Calcitonin receptor [2] = molecular target: T1, Calcitonin receptor (Homo sapiens, UniProt P30988); test: Agonist activity at human calcitonin receptor expressed in BHK570 cells assessed as increase in intracellular cAMP concentration incubated for 3 hrs in absence of albumin by CRE luciferase reporter gene assay; type: functional, cell-based
T1 sequence (P30988 whole entry): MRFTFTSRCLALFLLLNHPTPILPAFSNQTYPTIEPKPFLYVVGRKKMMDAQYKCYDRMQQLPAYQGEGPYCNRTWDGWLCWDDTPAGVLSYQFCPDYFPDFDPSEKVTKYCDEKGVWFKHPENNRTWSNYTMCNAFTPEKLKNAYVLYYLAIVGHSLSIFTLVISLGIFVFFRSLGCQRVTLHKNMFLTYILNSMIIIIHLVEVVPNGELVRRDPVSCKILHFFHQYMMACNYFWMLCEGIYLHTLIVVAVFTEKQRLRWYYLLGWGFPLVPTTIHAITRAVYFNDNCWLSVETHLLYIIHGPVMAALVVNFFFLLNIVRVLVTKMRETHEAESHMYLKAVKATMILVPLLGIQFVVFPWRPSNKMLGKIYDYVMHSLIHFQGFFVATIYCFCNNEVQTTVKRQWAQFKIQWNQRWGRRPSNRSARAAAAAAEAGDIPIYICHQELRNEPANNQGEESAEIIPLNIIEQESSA

[3] = Solubility in 100 mM glycylglycine buffer at pH 3.0 incubated for 18 hrs by UPLC analysis; type: physicochemical
[4] = molecular target: T2, Amylin receptor AMY3; CALCR/RAMP3 (Homo sapiens, UniProt O60896+P30988); test: Agonist activity at human amylin receptor expressed in BHK570 cells co-expressing RAMP3 assessed as increase in intracellular cAMP concentration incubated for 3 hrs in absence of albumin by CRE luciferase reporter gene assay; type: functional, cell-based
T2 sequence (P30988 whole entry): T1 sequence (P30988 whole entry)
T2 sequence (O60896 whole entry): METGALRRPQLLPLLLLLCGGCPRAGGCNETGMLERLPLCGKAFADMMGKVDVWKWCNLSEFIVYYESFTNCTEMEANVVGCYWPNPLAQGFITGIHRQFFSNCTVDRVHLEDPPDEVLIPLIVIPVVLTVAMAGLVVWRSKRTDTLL

[5] = Solubility in 100 mM glycylglycine buffer at pH 4.0 incubated for 18 hrs by UPLC analysis; type: physicochemical
Rattus norvegicus [6] = test: Reduction in food intake in Sprague-Dawley rat at 3 nmol/kg measured 0 to 24 hrs post dose relative to control; type: functional; parameters: scale not given: the % may be the effect or the level left
Rattus norvegicus [7] = test: Reduction in food intake in Sprague-Dawley rat at 3 nmol/kg measured 24 to 48 hrs post dose relative to control; type: functional; parameters: scale not given: the % may be the effect or the level left
[8] = Stability in pH 7.5 buffer assessed as lag time for fibril formation at 1 uM by Thioflavin T based fluorescence assay; type: physicochemical; conditions: pH 7.5, 1 µM
[9] = Stability in pH 7.5 buffer assessed as compound recovery at 1 uM by Thioflavin T based fluorescence assay; type: physicochemical; conditions: read-out: Drug recovery
[10] = molecular target: T2, Amylin receptor AMY3; CALCR/RAMP3; test: Agonist activity at human amylin receptor expressed in BHK570 cells co-expressing RAMP3 assessed as increase in intracellular cAMP concentration incubated for 3 hrs in presence of 10% FBS by CRE luciferase reporter gene assay; type: functional, cell-based
[11] = Solubility in 100 mM bistrispropane buffer at pH 6.0 incubated for 18 hrs by UPLC analysis; type: physicochemical
[12] = Solubility in 100 mM bistrispropane buffer at pH 8.0 incubated for 18 hrs by UPLC analysis; type: physicochemical
Calcitonin receptor [13] = molecular target: T1, Calcitonin receptor; test: Agonist activity at human calcitonin receptor expressed in BHK570 cells assessed as increase in intracellular cAMP concentration incubated for 3 hrs in presence of 10% FBS by CRE luciferase reporter gene assay; type: functional, cell-based
[14] = Solubility in 100 mM bistrispropane buffer at pH 7.0 incubated for 18 hrs by UPLC analysis; type: physicochemical
[15] = Solubility in 100 mM bistrispropane buffer at pH 7.5 incubated for 18 hrs by UPLC analysis; type: physicochemical

Row | SMILES | solubility at 18 h [1] | EC50 (Calcitonin receptor [2]) | solubility at 18 h [3] | EC50 [4] | solubility at 18 h [5] | Activity (Rattus norvegicus [6]) | Activity (Rattus norvegicus [7]) | Time [8] | remaining at 1 µM [9] | EC50 [10] | solubility at 18 h [11] | solubility at 18 h [12] | EC50 (Calcitonin receptor [13]) | solubility at 18 h [14] | solubility at 18 h [15]
1 | CC(C)C[C@H](NC(=O)[C@H](C)NC(=O)[C@H](C)NC(=O)[C@@H](NC(=O)[C@H](CO)NC(=O)[C@H](CC(C)C)NC(=O)[C@H](CCC(=O)O)NC(=O)[C@H](CO)NC(=O)[C@H](C)NC(=O)CC[C@H](NC(=O)CCCCCCCCCCCCCCCCCCC(=O)O)C(=O)O)[C@@H](C)O)C(=O)NCC(=O)N[C@@H](CCCNC(=N)N)C(=O)N[C@@H](CC(C)C)C(=O)N[C@@H](CO)C(=O)N[C@@H](C)C(=O)N[C@@H](CCC(=O)O)C(=O)N[C@@H](CC(C)C)C(=O)N[C@@H](Cc1cnc[nH]1)C(=O)N[C@@H](CCC(=O)O)C(=O)N[C@@H](CC(C)C)C(=O)N[C@@H](C)C(=O)N[C@H](C(=O)N[C@@H](Cc1ccc(O)cc1)C(=O)N1CCC[C@H]1C(=O)N[C@@H](CCCNC(=N)N)C(=O)N[C@H](C(=O)N[C@@H](CCC(=O)O)C(=O)N[C@H](C(=O)NCC(=O)N[C@@H](CO)C(=O)NCC(=O)N[C@@H](CO)C(=O)N[C@@H](Cc1ccc(O)cc1)C(N)=O)[C@@H](C)O)[C@@H](C)O)[C@@H](C)O ({C20 diacid-γGlu}-ASELSTAALGRLSAELHELATYPRTETGSGSY-NH2) | ≥ 200 µM | 0.029 nM | ≥ 200 µM | 0.032 nM | ≥ 200 µM | 49% | 56% | > 45 h | 100% | 0.093 nM | ≥ 200 µM | ≥ 200 µM | 0.071 nM | ≥ 200 µM | ≥ 200 µM
2 | CC(C)C[C@H](NC(=O)CNC(=O)[C@H](CO)NC(=O)[C@H](C)NC(=O)CC[C@H](NC(=O)CCCCCCCCCCCCCCCCCCC(=O)O)C(=O)O)C(=O)N[C@@H](CO)C(=O)N[C@H](C(=O)N[C@@H](C)C(=O)N[C@@H](C)C(=O)N[C@@H](CC(C)C)C(=O)NCC(=O)N[C@@H](CCCNC(=N)N)C(=O)N[C@@H](CC(C)C)C(=O)N[C@@H](CO)C(=O)N[C@@H](CCC(N)=O)C(=O)N[C@@H](CCC(=O)O)C(=O)N[C@@H](CC(C)C)C(=O)N[C@@H](Cc1cnc[nH]1)C(=O)N[C@@H](CCC(=O)O)C(=O)N[C@@H](CC(C)C)C(=O)N[C@@H](CCC(=O)O)C(=O)N[C@H](C(=O)N[C@@H](Cc1ccc(O)cc1)C(=O)N1CCC[C@H]1C(=O)N[C@@H](CCCNC(=N)N)C(=O)N[C@H](C(=O)N[C@@H](CCC(=O)O)C(=O)N[C@H](C(=O)NCC(=O)N[C@@H](CO)C(=O)NCC(=O)N[C@H](C(=O)N[C@@H](Cc1ccc(O)cc1)C(N)=O)[C@@H](C)O)[C@@H](C)O)[C@@H](C)O)[C@@H](C)O)[C@@H](C)O ({C20 diacid-γGlu}-ASGLSTAALGRLSQELHELETYPRTETGSGTY-NH2) | ≥ 200 µM | – | ≥ 200 µM | – | ≥ 200 µM | 27% | 26% | > 45 h | 100% | 0.15 nM | ≥ 200 µM | ≥ 200 µM | 0.068 nM | ≥ 200 µM | ≥ 200 µM
